Data taken from patent publication EP4494649A1, “PEPTIDES FOR USE IN THE TREATMENT OF AXONAL DAMAGE IN DIABETES” (Universität zu Köln, priority 2023, dated 2025).

How the values were obtained:
Cdk5-p25 = settings: embryonal neuronal cells; cited from earlier work
Cdk5-p35 = settings: embryonal neuronal cells; cited from earlier work
diabetic sciatic nerve [1] = test: Anatomical axon regeneration after sciatic nerve crush (SNC) in streptozotocin-induced T1DM mice; format: in vivo; settings: strep-induced T1DM mice, intrathecal injection 1 day prior and on the day of the SNC, 3 dpi
Experimental: (§1) To model type 1 diabetes mellitus (T1DM), male and female wild-type Ola received a single intraperitoneal injection of 100 mg/kg streptozotocin (strep) or vehicle (veh; 0.1 M citrate buffer, pH 4.5) at 4-6 weeks of age. The efficacy of the treatment was confirmed by assessing blood glucose levels 1 week after injection. Strep mice with over 250 mg/dl of blood glucose were considered diabetic. Thus, diabetes was induced 2 months before sciatic nerve crush.
All surgical procedures on mice adhered to respective animal care guidelines and were approved by the local authorities (LANUV Recklinghausen). For intrathecal AAV2.1 (CRMP2T514A-HA, GFP, tdTomato, and Cre-GFP: titer: ≥7·1012 vg/ml, Addgene), a 5 mm skin incision was made above the L4-L5 spines. The muscle tissue was carefully spread, and 2.5 µl of the viral solution was injected into the cerebrospinal fluid between the L4 and L5 spines using a Nanoject II injector (Drummond Scientific) with three consecutive 833 nl injections with a speed of 23 nl/s and 20 s intervals between injections. The skin was closed using 6-0 sutures. Transduction was performed 2 weeks before sciatic nerve crush (SNC). SNC was performed as described in Gobrecht et al., Nature Communications 5, 4561 (2014) and Gobrecht et al., (2016). In brief, animals were anesthetized by inhalation anaesthesia with 1.5% isoflurane in oxygen, and a skin incision of 5 mm was made above the gluteal region. […]
For assessment of anatomical regeneration, the sciatic nerves were isolated 3 days post-injury (dpi). […] Regeneration of sympathetic fibers was quantified with immunostaining against tyrosine hydroxylase (TH; Novus, 1:500; RRID:AB_10077691).
To verify the regeneration-stimulating effect of the peptide, axonal regeneration was determined in vivo. […] Anatomical regeneration was assessed 3 days post-injury (dpi).
To verify the regeneration-stimulating effect in vivo, axonal regeneration was determined. […] Anatomical regeneration was assessed 3 days post-injury (dpi).

diabetic sciatic nerve [2] = test: Static sciatic index (SSI), functional motor recovery after SNC in diabetic mice; format: in vivo
Experimental: (§2) The intrathecal application of anti-peptide against CDK5 (AP-CDK5) and P5 was performed with the above-described method to assess anatomical regeneration. Either 2 µl AP-CDK5 or P5 (each 4 mg/ml) or vehicle (DMSO) was injected the day before SNC and the day of SNC or the day of SNC and the day after. For analyses of functional recovery, AP-CDKS was injected daily at 400 µg/kg from the day of SNC until the mice were sacrificed. AP-CDKS and P5 (Genescript) were fused to a TAT-sequence for cell membrane penetration and had the following sequence: AP-CDKS: […] and (SEQ ID No. 3) P5: […] (SEQ ID No. 13).
Motor recovery after SNC was determined by calculating the SSI as described in Baptista AF et al., 2007, J Neurosci Methods 161, 259-264 and Gobrecht et al., Nature Communications 5, 1-10 (2014). […] Toe spreading on contralateral (C, left) and ipsilateral (I, right) sides relative to the SNC was assessed by measuring paw_length (PL) and the_distance between the first and fifth toe (FF). The SSI was then calculated using the previously described formula: SSI = 101.3((IFF-CFF)/CFF)-54.03((IPL-CPL)/CPL)-9.5 in as described in Baptista AF et al., 2007, J Neurosci Methods 161, 259-264.
Data represent mean SSI±SEM per experimental group. Statistical significances of intergroup differences were evaluated using two-way ANOVA followed by the Holm Sidak post hoc test. […]

diabetic sciatic nerve [3] = test: von Frey test, functional sensory recovery after SNC in diabetic mice; format: in vivo; settings: i.p. daily 400 µg/kg from the day of SNC, Figure 1M
Experimental: as §2
Sensory recovery after SNC was determined at the indicated time points after SNC with the von Frey filament test as described in Gobrecht et al., 2014 and Gobrecht et al., (2016). Tests were performed at the same time of day by the same experimenter. Mice were placed on an elevated metal grid (pore size: 2 mm) and allowed to acclimate for 15 min before testing. […] Statistical significances of intergroup differences were evaluated using two-way ANOVA followed by the Holm Sidak post hoc test.
Figure 1H illustrates the timeline of experiments. […] After SNC, SSI and von Frey tests were assessed before the day of SNC, and days 1, 4, 7, 9, 14, 21, 28, and 35 thereafter.

CRMP2 = test: Inhibitory CRMP2 phosphorylation (pCRMP2^T514) in DRG of diabetic mice, Western blot and immunostaining; format: in vivo
Experimental: as §1
The intrathecal application of anti-peptide against CDK5 (AP-CDK5) and P5 was performed with the above-described method to assess anatomical regeneration. […]
DRG (L3-L5) or 3 mm of the sciatic nerves proximal to the injury site from three mice per group were homogenized by sonication in 100 µl lysis buffer (20 mM Tris-HCl pH 7.5, 10 mM KCl, 250 mM sucrose, 10 mM NaF, 1mM DTT, 0.1 mM Na3VO4, 1% Triton X-100, 0.1% SDS, 1% protease inhibitors (Merck Millipore) and phosphatase inhibitors (Roche)). […] All antibodies were detected with anti-rabbit or anti-mouse IgG secondary antibodies conjugated to HRP (1:80,000; Sigma). […]
[…] Antibodies were detected with anti-rabbit, anti-goat, or anti-mouse secondary antibodies conjugated to Dylight-405,_Alexa-594, or Alexa-488.
Figure 1H illustrates the timeline of experiments. […] After SNC, SSI and von Frey tests were assessed before the day of SNC, and days 1, 4, 7, 9, 14, 21, 28, and 35 thereafter. […]

Sequence	deregulated Cdk5-p25 activity (Cdk5-p25)	activity of endogenous Cdk5-p35 (Cdk5-p35)	anatomical regeneration of motor fibers (diabetic sciatic nerve [1]; ChAT staining)	anatomical regeneration of sensory fibers (diabetic sciatic nerve [1]; SCG10 staining)	anatomical regeneration of sympathetic fibers (diabetic sciatic nerve [1]; TH staining)	functional motor recovery assessed by static sciatic index (SSI) (diabetic sciatic nerve [2]; i.p. daily 400 µg/kg from the day of SNC, Figure 1L)	axon regeneration (pictures of the injured paw) (diabetic sciatic nerve [2]; i.p. daily from SNC, before and 1, 7, 14, 21, 28, 35 dpi, Figure 1K)	functional sensory recovery determined by the von Frey test (diabetic sciatic nerve [3])	CRMP2 inactivation in neurons (pCRMP2^T514 immunostaining) (CRMP2; DRG (L6), strep-treated mice, i.p. injection, tissue harvested after completing functional recovery, Figure 1N)	CRMP2 inactivation in DRG neurons (pCRMP2^T514 Western blot) (CRMP2; L4-L6 DRG, strep T1DM mice, i.p. every day from the SNC until sacrifice, Figures 1I, 1J)
KEAFWDRCLSVINLMSSKMLQINA (listed as Homo sapiens) [p5]	inhibited	did not affect	–	–	–	–	–	–	–	–
LVESCKEAFWDRCLSVINLMSSKMYARAARRAARR (REGION 1..35: note = Fusion peptide) [AP-CDK5]	–	–	accelerated	accelerated	accelerated	provide a functional effect	accelerated	provide a functional effect	strongly reduced	strongly reduced
